Assay results as given in ChEMBL document CHEMBL5137024, “Discovery of novel coumarin-indole derivatives as tubulin polymerization inhibitors with potent anti-gastric cancer activities” (Eur J Med Chem, 2022).
pIC50: −log10 of the molar value. Active and inactive are the calls of the source. The calls are words filed in the database; no cut-off is given here.

Columns and labels:
HGC-27 [1] = assay: Induction of apoptosis in human HGC-27 cells assessed as increase in cleavage caspase 3 level; assay type: functional, cell-based; settings: dose 10-30 nM, DDE = dose-dependent effect
[2] = Cytotoxicity against human GES1 cells assessed as reduction in cell viability incubated for 48 hrs by MTT assay; assay type: toxicity, cell-based
HGC-27 [3] = assay: Induction of apoptosis in human HGC-27 cells assessed as nuclear concentration at 10 to 30 nM incubated for 48 hrs by DAPI staining based analysis; assay type: functional, cell-based; settings: dose 10-30 nM
HGC-27 [4] = assay: Inhibition of cell migration in human HGC-27 cells assessed as reduction in wound healing rate at 10 to 30 nM incubated for 24 hrs; assay type: functional, cell-based; settings: dose 10-30 nM
[5] = Induction of mitochondria mediated intrinsic apoptosis in human MGC-803 cells assessed as late apoptotic cells at 15 nM measured after 48 hrs by flow cytometry analysis (Rvb= 98.2%); assay type: functional
Tubulin (Sus scrofa) = Tubulin (Sus scrofa) (UniProt P02554+P02550); assay: Inhibition of porcine brain tubulin polymerization assessed as reduction in tubulin polymerization level by measuring relative fluorescence intensity at 3 umol/l by fluorescence based assay; assay type: tissue-based; settings: dose 3.0 µmol/L
Tubulin (Sus scrofa), sequence (P02550 whole entry, looked up): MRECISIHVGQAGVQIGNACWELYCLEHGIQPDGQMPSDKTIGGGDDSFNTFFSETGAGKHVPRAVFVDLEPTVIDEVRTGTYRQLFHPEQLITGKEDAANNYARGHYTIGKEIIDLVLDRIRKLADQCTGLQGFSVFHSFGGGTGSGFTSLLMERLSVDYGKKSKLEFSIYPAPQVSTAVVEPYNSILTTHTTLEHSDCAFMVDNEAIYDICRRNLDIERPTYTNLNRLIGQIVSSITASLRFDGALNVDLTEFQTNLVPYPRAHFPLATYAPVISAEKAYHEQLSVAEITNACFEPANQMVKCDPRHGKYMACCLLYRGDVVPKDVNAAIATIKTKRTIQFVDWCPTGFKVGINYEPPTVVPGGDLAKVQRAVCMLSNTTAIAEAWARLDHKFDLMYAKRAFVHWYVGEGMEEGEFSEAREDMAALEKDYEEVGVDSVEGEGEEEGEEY
Tubulin (Sus scrofa), sequence (P02554 whole entry, looked up): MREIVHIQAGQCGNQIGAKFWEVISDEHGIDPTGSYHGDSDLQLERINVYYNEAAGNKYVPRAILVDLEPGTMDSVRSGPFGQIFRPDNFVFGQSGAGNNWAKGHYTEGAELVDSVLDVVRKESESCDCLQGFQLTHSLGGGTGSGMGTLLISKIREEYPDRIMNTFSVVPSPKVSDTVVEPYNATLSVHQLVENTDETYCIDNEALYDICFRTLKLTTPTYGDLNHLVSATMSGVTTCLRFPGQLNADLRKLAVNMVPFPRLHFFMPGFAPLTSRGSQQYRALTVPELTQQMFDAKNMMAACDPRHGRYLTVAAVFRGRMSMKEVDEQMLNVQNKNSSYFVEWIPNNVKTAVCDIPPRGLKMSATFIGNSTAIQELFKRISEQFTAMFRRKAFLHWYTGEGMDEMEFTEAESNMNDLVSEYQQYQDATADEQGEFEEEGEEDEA

MGC-803 [6] = assay: Induction of apoptosis in human MGC-803 cells assessed as decrease in cIAP-1 level; assay type: functional, cell-based; settings: dose 5-15 nM, DDE = dose-dependent effect
MGC-803 [7] = assay: Induction of apoptosis in human MGC-803 cells assessed as increase in Noxa level; assay type: functional, cell-based; settings: dose 5-15 nM, DDE = dose-dependent effect
[8] = molecular target: Tubulin beta (Homo sapiens) (UniProt P68371+Q9H4B7+Q13509+P04350+Q3ZCM7+P07437+Q13885+Q9BVA1+Q9BUF5+A6NNZ2); assay: Binding affinity to beta-tubulin colchicine binding site in human HGC-27 cells assessed as decrease in beta-tubulin adduct band incubated for 2 hrs by EBI alkylate competition assay; assay type: cell-based; settings: dose 0.075-0.75 µM, DDE = dose-dependent effect
HGC-27 [9] = assay: Inhibition of ERK signalling pathway in human HGC-27 cells assessed as reduction in downstream substrate p90RSK phosphorylation at 10 to 30 nM incubated for 48 hrs; assay type: cell-based; settings: dose 10-30 nM
MGC-803 [10] = assay: Downregulation of FoxO3a expression in human MGC-803 cells incubated for 48 hrs; assay type: functional, cell-based; settings: dose 5-15 nM, DDE = dose-dependent effect
MGC-803 [11] = assay: Antitumor activity against human MGC-803 cells xenografted BALB/c nude mouse assessed as inhibition of tumor volume at 15 to 30 mg/kg, ip administered once daily for 21 days and measured every 2 days; assay type: functional, organism-based; settings: dose 15-30 mg/kg, time 21.0 day
HGC-27 [12] = assay: Downregulation of ATF4 expression in human HGC-27 cells incubated for 48 hrs; assay type: functional, cell-based; settings: dose 10-30 nM, DDE = dose-dependent effect
MGC-803 [13] = assay: Inhibition of cell migration in human MGC-803 cells assessed as reduction in wound healing rate at 5 to 15 nM incubated for 24 hrs; assay type: functional, cell-based; settings: dose 5-15 nM
Tubulin (Homo sapiens) [14] = molecular target: T1, Tubulin (Homo sapiens) (UniProt P68371+Q9H4B7+P0DPH7+P68366+Q13509+Q71U36+P04350+Q3ZCM7+P07437+P68363+Q9BQE3+Q6PEY2+Q13885+Q9BVA1+Q9BUF5); assay: Disruption of microtubule network in human HGC-27 cells assessed as cytoskeleton disruption at 10 to 30 nM measured after 48 hrs by DAPI staining based fluorescence microscopic analysis; assay type: cell-based; settings: dose 10-30 nM
HGC-27 [15] = assay: Induction of apoptosis in human HGC-27 cells assessed as decrease in cell density at 10 to 30 nM incubated for 48 hrs by bright field imaging analysis; assay type: functional, cell-based; settings: dose 10-30 nM
HGC-27 [16] = assay: Induction of apoptosis in human HGC-27 cells assessed as decrease in Bcl-2 level; assay type: functional, cell-based; settings: dose 10-30 nM, DDE = dose-dependent effect
ECa-109 cell line = assay: Antiproliferative activity against human EC109 cells assessed as reduction in cell viability incubated for 48 hrs by MTT assay; assay type: functional, cell-based; settings: ECa-109, 48 h
HGC-27 [17] = assay: Induction of apoptosis in human HGC-27 cells assessed as increase in cleavage caspase 7 level; assay type: functional, cell-based; settings: dose 10-30 nM, DDE = dose-dependent effect
[18] = Induction of mitochondria mediated intrinsic apoptosis in human MGC-803 cells assessed as early apoptotic cells at 15 nM measured after 48 hrs by flow cytometry analysis (Rvb= 1.6%); assay type: functional
Tubulin (Homo sapiens) [19] = molecular target: T1, Tubulin (Homo sapiens); assay: Disruption of microtubule network in human MGC-803 cells assessed as cytoskeleton disruption at 5 to 15 nM measured after 48 hrs by DAPI staining based fluorescence microscopic analysis; assay type: cell-based; settings: dose 5-15 nM
HGC-27 [20] = assay: Antiproliferative activity against human HGC-27 cells assessed as reduction in cell viability incubated for 48 hrs by MTT assay; assay type: functional, cell-based; settings: HGC-27, 48 h
[21] = Induction of mitochondria mediated intrinsic apoptosis in human HGC-27 cells assessed as early apoptotic cells at 20 nM measured after 48 hrs by flow cytometry analysis (Rvb= 6.4%); assay type: functional
HGC-27 [22] = assay: Antiinvasive activity against human HGC-27 cells assessed as reduction in number of cells in membrane incubated for 48 hrs by trans well assay; assay type: functional, cell-based; settings: dose 10-30 nM, DDE = dose-dependent effect
MGC-803 [23] = assay: Inhibition of p38 signalling pathway in human MGC-803 cells assessed as reduction in downstream substrate HSP-27 phosphorylation at 5 to 15 nM incubated for 48 hrs; assay type: cell-based; settings: dose 5-15 nM
MGC-803 [24] = assay: Inhibition of ERK signalling pathway in human MGC-803 cells assessed as downregulation of c-Raf phosphorylation at 5 to 15 nM incubated for 48 hrs; assay type: cell-based; settings: dose 5-15 nM
HGC-27 [25] = assay: Inhibition of p38 signalling pathway in human HGC-27 cells assessed as reduction in downstream substrate HSP-27 phosphorylation at 10 to 30 nM incubated for 48 hrs; assay type: cell-based; settings: dose 10-30 nM
MGC-803 [26] = assay: Induction of apoptosis in human MGC-803 cells assessed as upregulation of cleavage caspase 8 level; assay type: functional, cell-based; settings: dose 5-15 nM, DDE = dose-dependent effect
HGC-27 [27] = assay: Inhibition of ERK signalling pathway in human HGC-27 cells assessed as downregulation of ERK1/2 phosphorylation at 10 to 30 nM incubated for 48 hrs; assay type: cell-based; settings: dose 10-30 nM
MDA-MB-231 = assay: Antiproliferative activity against human MDA-MB-231 cells assessed as reduction in cell viability incubated for 48 hrs by MTT assay; assay type: functional, cell-based; settings: MDA-MB-231, 48 h
HGC-27 [28] = assay: Downregulation of FoxO3a expression in human HGC-27 cells incubated for 48 hrs; assay type: functional, cell-based; settings: dose 10-30 nM, DDE = dose-dependent effect
MGC-803 [29] = assay: Antiinvasive activity against human MGC-803 cells assessed as reduction in number of cells in membrane incubated for 48 hrs by trans well assay; assay type: functional, cell-based; settings: dose 5-15 nM, DDE = dose-dependent effect
Mus musculus = assay: Upregulation of cleaved caspase -3 expression in tumor tissue of BALB/c nude mouse xenografted with human MGC-803 cells at 15 to 30 mg/kg, ip administered once daily for 21 days by Western blotting analysis; assay type: functional, organism-based; settings: dose 15-30 mg/kg, time 21.0 day
SK-N-SH = assay: Antiproliferative activity against human SK-N-SH cells assessed as reduction in cell viability incubated for 48 hrs by MTT assay; assay type: functional, cell-based
MGC-803 [30] = assay: Downregulation of vimentin expression in human MGC-803 cells incubated for 48 hrs; assay type: functional, cell-based; settings: dose 5-15 nM, DDE = dose-dependent effect
MGC-803 [31] = assay: Downregulation of c-Myc expression in human MGC-803 cells incubated for 48 hrs; assay type: functional, cell-based; settings: dose 5-15 nM, DDE = dose-dependent effect
HGC-27 [32] = assay: Inhibition of ERK signalling pathway in human HGC-27 cells assessed as reduction in downstream substrate MSK1 phosphorylation at 10 to 30 nM incubated for 48 hrs; assay type: cell-based; settings: dose 10-30 nM
[33] = Induction of mitochondria mediated intrinsic apoptosis in human MGC-803 cells assessed as late apoptotic cells at 5 nM measured after 48 hrs by flow cytometry analysis (Rvb= […]); assay type: functional

In the case of `CN(c1ccc2c(ccn2C)c1)c1cc(=O)oc2ccccc12`, the Activity (HGC-27 [1]) was “Dde”, the IC50 at 48 h [2] was 3.17 µM and the Activity (HGC-27 [3]) was “Active”. For the same compound, the inhibition (HGC-27 [4]) was “Active”, the Activity [5] was 75.2% and the inhibition (Tubulin (Sus scrofa)) was “Active”. For the same compound, the Activity (MGC-803 [6]) was “Dde”, the Activity (MGC-803 [7]) was “Dde” and the Activity [8] was “Dde”. For the same compound, the inhibition (HGC-27 [9]) was “Active”, the Activity (MGC-803 [10]) was “Dde” and the Activity (MGC-803 [11]) was “Active”. The Activity (HGC-27 [12]) was “Dde”, the inhibition (MGC-803 [13]) was “Active” and the Activity (Tubulin (Homo sapiens) [14]) was “Active”. For the same compound, the Activity (HGC-27 [15]) was “Active”, the Activity (HGC-27 [16]) was “Dde” and the pIC50 (ECa-109 cell line) was 7.47. For the same compound, the Activity (HGC-27 [17]) was “Dde”, the Activity [18] was 23.6% and the Activity (Tubulin (Homo sapiens) [19]) was “Active”. The pIC50 (HGC-27 [20]) was 7.62, the Activity [21] was 21.6% and the Activity (HGC-27 [22]) was “Dde”. For the same compound, the inhibition (MGC-803 [23]) was “Active”, the inhibition (MGC-803 [24]) was “Active” and the inhibition (HGC-27 [25]) was “Active”. For the same compound, the Activity (MGC-803 [26]) was “Dde”, the inhibition (HGC-27 [27]) was “Active” and the pIC50 (MDA-MB-231) was 7.10. The Activity (HGC-27 [28]) was “Dde”, the Activity (MGC-803 [29]) was “Dde” and the Activity (Mus musculus) was “Active”. The pIC50 (SK-N-SH) was 7.22, the Activity (MGC-803 [30]) was “Dde” and the Activity (MGC-803 [31]) was “Dde”. The inhibition (HGC-27 [32]) was “Active” and the Activity [33] was 98.1%.
